Entries after “also recorded” stand apart in the source; their conditions may differ.
Tests used:
[1] = Preclinical toxicology: lorcaserin, M1 and M5 pharmacokinetics after oral administration of lorcaserin, 52 wk, monkeys; conditions: monkeys; Day 1; 2 to 125 mg/kg; both sexes
Experimental: Lorcaserin doses of 0, 2, 10, 50, and 125 mg/kg in a 5 mL/kg dose volume were administered by nasogastric intubation once daily for 12 months to cynomolgus monkeys (4 to 6/sex/group). Two animals/sex from the control, 50 and 125 mg/kg groups were continued on study without further dosing for an additional 4 weeks prior to termination. For the first 91 days of the study, dose solutions were prepared using anhydrous lorcaserin. Starting on Day 92 and continuing for the remainder of the study, dose solutions were prepared using lorcaserin hemihydrate to match the intended commercial form. […] Evaluations included clinical signs, food consumption, BW, electrocardiograms, ophthalmic exams, and clinical pathology indices. Blood samples were collected for TK analysis on Day 1, Week 4, Day 91, Day 92, and Week 52. A full necropsy was conducted on all animals, and tissues were collected, preserved, processed, and examined microscopically. Additional sections of heart were collected to allow comprehensive evaluation of all heart valves. Heart histopathologic evaluation included atria, ventricles, interventricular septum, both AV valves (mitral and tricuspid), and the aortic and pulmonic valves.

[2] = Clinical trial APD356-016: plasma and urine pharmacokinetics of lorcaserin, M1 and M5 after a 10 mg dose in subjects with renal impairment; conditions: for Ae0-120 / fe0-120: urine; for CL renal / AUC(0-t) / Cmax / half-life / AUC0-inf / MRT inf / Vd/F / tmax: human, 10 mg; for CL renal: plasma and urine, ClR/F; for AUC(0-t) / Cmax / half-life / AUC0-inf / MRT inf / Vd/F / tmax: plasma; for MRT inf: MRTinf; for Vd/F: Vz/F; for tmax: median
How it was run: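 Single 10 mg lorcaserin dose in subjects grouped by renal function; plasma and urine sampled for lorcaserin, M1 and M5. Groups set by creatinine clearance from ideal body weight, with actual-weight regrouping also summarised; the dialysis subject counted as end-stage renal disease.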

[3] = 10 mg dose, Mild, actual BW groups
[4] = 10 mg dose, Mild, ideal BW groups
[5] = 10 mg dose, Moderate, actual BW groups
[6] = 10 mg dose, Moderate, ideal BW groups
[7] = 10 mg dose, Normal, actual BW groups
[8] = 10 mg dose, Normal, ideal BW groups
[9] = 10 mg dose, Severe N = 1, actual BW groups
[10] = 10 mg dose, Severe, ideal BW groups
[11] = Moderate N = 8, actual BW groups
[12] = oral, 10 mg dose, Mild, actual BW groups
[13] = oral, 10 mg dose, Mild, ideal BW groups
[14] = oral, 10 mg dose, Moderate, actual BW groups
[15] = oral, 10 mg dose, Moderate, ideal BW groups
[16] = oral, 10 mg dose, Normal, actual BW groups
[17] = oral, 10 mg dose, Normal, ideal BW groups
[18] = oral, 10 mg dose, Severe N = 1, actual BW groups
[19] = oral, 10 mg dose, Severe, ideal BW groups

C[C@H]1CNCCc2ccc(Cl)cc21 [Lorcaserin, (R)-8-chloro-1-methyl-2,3,4,5-tetrahydro-1H-3-benzazepine]
Dose proportionality of plasma exposure [1]: dose linear
% AUC0-inf Extrapolated [2, 3]: 4.54%
Cl/F [2, 3]: 17.3 L/h
ClNR/F [2, 3]: 16.7 L/h
T1/2z [2, 3]: 14.6 h
% AUC0-inf Extrapolated [2, 4]: 3.36%
Cl/F [2, 4]: 13.3 L/h
ClNR/F [2, 4]: 12.8 L/h
T1/2z [2, 4]: 13.0 h
% AUC0-inf Extrapolated [2, 5]: 3.74%
Cl/F [2, 5]: 18.9 L/h
ClNR/F [2, 5]: 18.2 L/h
T1/2z [2, 5]: 14.9 h
% AUC0-inf Extrapolated [2, 6]: 4.92%
Cl/F [2, 6]: 17.7 L/h
ClNR/F [2, 6]: 17.0 L/h
T1/2z [2, 6]: 15.9 h
% AUC0-inf Extrapolated [2, 7]: 3.57%
Cl/F [2, 7]: 15.6 L/h
ClNR/F [2, 7]: 15.1 L/h
T1/2z [2, 7]: 12.1 h
% AUC0-inf Extrapolated [2, 8]: 3.81%
Cl/F [2, 8]: 17.5 L/h
ClNR/F [2, 8]: 17.1 L/h
T1/2z [2, 8]: 11.0 h
% AUC0-inf Extrapolated [2, 9]: 3.70%
Cl/F [2, 9]: 17.6 L/h
ClNR/F [2, 9]: 17.2 L/h
T1/2z [2, 9]: 18.8 h
% AUC0-inf Extrapolated [2, 10]: 3.59%
Cl/F [2, 10]: 19.7 L/h
ClNR/F [2, 10]: 19.0 L/h
T1/2z [2, 10]: 15.0 h
Ae0-120 [2, 3]: 297 µg
fe0-120 [2, 3]: 0.0352
Ae0-120 [2, 4]: 326 µg
fe0-120 [2, 4]: 0.0386
Ae0-120 [2, 5]: 304 µg
fe0-120 [2, 5]: 0.0360
Ae0-120 [2, 6]: 327 µg
fe0-120 [2, 6]: 0.0387
Ae0-120 [2, 7]: 257 µg
fe0-120 [2, 7]: 0.0304
Ae0-120 [2, 8]: 185 µg
fe0-120 [2, 8]: 0.0220
Ae0-120 [2, 9]: 204 µg
fe0-120 [2, 9]: 0.0242
Ae0-120 [2, 10]: 280 µg
fe0-120 [2, 10]: 0.0332
Removal by hemodialysis ([2]; ESRD): not removed; also recorded: not cleared
Geometric Mean Ratio of LSM (90% CI), AUC0-inf, relative to Normal Renal Function Group ([2]; Mild N = 10, actual BW groups): 0.921 (0.735, 1.15)
Geometric Mean Ratio of LSM (90% CI), AUClast, relative to Normal Renal Function Group ([2]; Mild N = 10, actual BW groups): 0.912 (0.723, 1.15)
Geometric Mean Ratio of LSM (90% CI), Cmax, relative to Normal Renal Function Group ([2]; Mild N = 10, actual BW groups): 0.819 (0.652, 1.03)
Geometric Mean Ratio of LSM (90% CI), AUC0-inf, relative to Normal Renal Function Group ([2]; Mild, ideal BW groups): 1.30 (1.01, 1.67)
Geometric Mean Ratio of LSM (90% CI), AUClast, relative to Normal Renal Function Group ([2]; Mild, ideal BW groups): 1.31 (1.01, 1.69)
Geometric Mean Ratio of LSM (90% CI), Cmax, relative to Normal Renal Function Group ([2]; Mild, ideal BW groups): 0.991 (0.764, 1.29)
Geometric Mean Ratio of LSM (90% CI), AUC0-inf, relative to Normal Renal Function Group [2, 11]: 0.869 (0.683, 1.11)
Geometric Mean Ratio of LSM (90% CI), AUClast, relative to Normal Renal Function Group [2, 11]: 0.868 (0.678, 1.11)
Geometric Mean Ratio of LSM (90% CI), Cmax, relative to Normal Renal Function Group [2, 11]: 0.738 (0.579, 0.941)
Geometric Mean Ratio of LSM (90% CI), AUC0-inf, relative to Normal Renal Function Group ([2]; Moderate, ideal BW groups): 1.03 (0.806, 1.32)
Geometric Mean Ratio of LSM (90% CI), AUClast, relative to Normal Renal Function Group ([2]; Moderate, ideal BW groups): 1.02 (0.791, 1.32)
Geometric Mean Ratio of LSM (90% CI), Cmax, relative to Normal Renal Function Group ([2]; Moderate, ideal BW groups): 0.697 (0.537, 0.904)
Geometric Mean Ratio of LSM (90% CI), AUC0-inf, relative to Normal Renal Function Group ([2]; Severe N = 1, actual BW groups): 0.861 (0.494, 1.50)
Geometric Mean Ratio of LSM (90% CI), AUClast, relative to Normal Renal Function Group ([2]; Severe N = 1, actual BW groups): 0.861 (0.487, 1.52)
Geometric Mean Ratio of LSM (90% CI), Cmax, relative to Normal Renal Function Group ([2]; Severe N = 1, actual BW groups): 0.468 (0.267, 0.821)
Geometric Mean Ratio of LSM (90% CI), AUC0-inf, relative to Normal Renal Function Group ([2]; Severe, ideal BW groups): 0.931 (0.727, 1.19)
Geometric Mean Ratio of LSM (90% CI), AUClast, relative to Normal Renal Function Group ([2]; Severe, ideal BW groups): 0.933 (0.723, 1.20)
Geometric Mean Ratio of LSM (90% CI), Cmax, relative to Normal Renal Function Group ([2]; Severe, ideal BW groups): 0.686 (0.529, 0.891)
CL renal [2, 12]: 10.3 mL/min
CL renal [2, 13]: 8.88 mL/min
CL renal [2, 14]: 11.1 mL/min
CL renal [2, 15]: 11.1 mL/min
CL renal [2, 16]: 7.8 mL/min
CL renal [2, 17]: 6.53 mL/min
CL renal [2, 18]: 7.27 mL/min
CL renal [2, 19]: 11 mL/min
AUC(0-t) ([2]; AUC24 hr, ESRD, 10 mg QD Authentic, Day 1): 618 ng·h/mL
AUC(0-t) ([2]; AUC24 hr, Mild, 10 mg QD Authentic, Day 1): 623 ng·h/mL
AUC(0-t) ([2]; AUC24 hr, Moderate, 10 mg QD Authentic, Day 1): 515 ng·h/mL
AUC(0-t) ([2]; AUC24 hr, Normal, 10 mg QD Authentic, Day 1): 482 ng·h/mL
AUC(0-t) ([2]; AUC24 hr, Severe, 10 mg QD Authentic, Day 1): 469 ng·h/mL
Cmax ([2]; ESRD, 10 mg QD Authentic, Day 1): 27.2 ng/mL
Cmax ([2]; Mild, 10 mg QD Authentic, Day 1): 36.3 ng/mL
Cmax ([2]; Moderate, 10 mg QD Authentic, Day 1): 26.2 ng/mL
Cmax ([2]; Normal, 10 mg QD Authentic, Day 1): 37 ng/mL
Cmax ([2]; Severe, 10 mg QD Authentic, Day 1): 26.4 ng/mL
half-life ([2]; t1/2, ESRD, 10 mg QD Authentic, Day 1): 43.8 h
half-life ([2]; t1/2, Mild, 10 mg QD Authentic, Day 1): 13 h
half-life ([2]; t1/2, Moderate, 10 mg QD Authentic, Day 1): 15.9 h
half-life ([2]; t1/2, Normal, 10 mg QD Authentic, Day 1): 11 h
half-life ([2]; t1/2, Severe, 10 mg QD Authentic, Day 1): 15 h
AUC0-inf [2, 12]: 535 ng·h/mL
AUC0-inf [2, 13]: 644 ng·h/mL
AUC0-inf [2, 14]: 516 ng·h/mL
AUC0-inf [2, 15]: 538 ng·h/mL
AUC0-inf [2, 16]: 569 ng·h/mL
AUC0-inf [2, 17]: 501 ng·h/mL
AUC0-inf [2, 18]: 478 ng·h/mL
AUC0-inf [2, 19]: 486 ng·h/mL
AUC(0-t) ([2]; oral, AUC0-t, 10 mg dose, Mild, actual BW groups): 513 ng·h/mL
AUC(0-t) ([2]; oral, AUC0-t, 10 mg dose, Mild, ideal BW groups): 623 ng·h/mL
AUC(0-t) ([2]; oral, AUC0-t, 10 mg dose, Moderate, actual BW groups): 497 ng·h/mL
AUC(0-t) ([2]; oral, AUC0-t, 10 mg dose, Moderate, ideal BW groups): 515 ng·h/mL
AUC(0-t) ([2]; oral, AUC0-t, 10 mg dose, Normal, actual BW groups): 549 ng·h/mL
AUC(0-t) ([2]; oral, AUC0-t, 10 mg dose, Normal, ideal BW groups): 482 ng·h/mL
AUC(0-t) ([2]; oral, AUC0-t, 10 mg dose, Severe N = 1, actual BW groups): 461 ng·h/mL
AUC(0-t) ([2]; oral, AUC0-t, 10 mg dose, Severe, ideal BW groups): 469 ng·h/mL
Cmax [2, 12]: 30.2 ng/mL
Cmax [2, 13]: 36.3 ng/mL
Cmax [2, 14]: 27.6 ng/mL
Cmax [2, 15]: 26.2 ng/mL
Cmax [2, 16]: 36 ng/mL
Cmax [2, 17]: 37 ng/mL
Cmax [2, 18]: 16.4 ng/mL
Cmax [2, 19]: 26.4 ng/mL
MRT inf [2, 12]: 19.3 h
MRT inf [2, 13]: 18 h
MRT inf [2, 14]: 20.8 h
MRT inf [2, 15]: 21.1 h
MRT inf [2, 16]: 16.5 h
MRT inf [2, 17]: 14.8 h
MRT inf [2, 18]: 30.8 h
MRT inf [2, 19]: 21.7 h
Vd/F [2, 12]: 361 L
Vd/F [2, 13]: 248 L
Vd/F [2, 14]: 381 L
Vd/F [2, 15]: 399 L
Vd/F [2, 16]: 266 L
Vd/F [2, 17]: 276 L
Vd/F [2, 18]: 479 L
Vd/F [2, 19]: 401 L
tmax [2, 12]: 2.5 h
tmax [2, 13]: 4.5 h
tmax [2, 14]: 2.5 h
tmax [2, 15]: 2.5 h
tmax [2, 16]: 2 h
tmax [2, 17]: 2 h
tmax [2, 18]: 4 h
tmax [2, 19]: 3 h
Fractional excretion ([2]; normal renal function): 2.2%

From US8999970B2, “Administration of an anti-obesity compound to individuals with renal impairment” (Arena Pharmaceuticals, Inc., priority 2010, dated 2015)
